One assay addresses human Arginine Vasopressin Receptor 1a (AVPR1a) (Homo sapiens (Human), UniProt P37288). As to the kind of experiment: Vasopressin V1A receptor antagonist assay (AVP-evoked calcium, FLIPR, CHO-AVPR1a cells). Type of assay: cell-based.
Details: not given
On the procedure:
The purpose of this assay was to determine the inhibitory effect of synthesized compounds on the Vasopressin V1a receptor. The assay as performed in Chinese Hamster Ovary (CHO) cells expressing the human Arginine Vasopressin Receptor 1a (AVPR1a). Arginine Vasopressin (AVP) evokes an increase in intracellular calcium in CHO-AVPR1a cells which is measured in a fluorescence assay on the FLIPR^TETRA using calcium sensitive dyes. Test compounds were assessed for their ability to affect the magnitude of the response to AVP, with antagonists showing a concentration-dependent reduction in the AVP-mediated fluorescence. Compounds were tested in duplicate in a 10-point, 1:3 dilution series starting at a nominal concentration of 3 μM in the assay.
CHO-AVPR1a cells were maintained in routine culture in T175 Flasks at 37° C., 5% CO2. The growth medium consists of Ham's F12 media supplemented with 10% v/v fetal bovine serum, 1× non-essential amino acids, and 0.4 mg/ml Geneticin G418.
On day one, cells were harvested from T175 flasks when they are 80-90% confluent by first washing the cell monolayer with PBS and then dissociated using trypsin 0.05%/EDTA (3 mL for a T175 Flask). The flasks were incubated at room temperature until the cells detached. To the cell suspension, 10 ml of growth media was added and the cell density determined using the Vi-Cell automated cell counter. The cells were spun at 1000 rpm for 3 minutes, then the supernatant was carefully removed and discarded. The cell pellet was re-suspended at 6.0e^5 cells/ml in growth media. 25 μL of cells in growth media was dispensed into each well (15,000 cells per well) of a poly-D-lysine coated black, clear bottomed, 384-well plate. The plates were incubated at 37° C., 5% CO2 overnight.
At the start of each assay day, the potency of AVP was assessed and an EC80 concentration determined for subsequent compound profiling. Assays were performed using a two-step addition protocol on the FLIPR^TETRA; first addition of 5 μl of control or test compound at 10× final in assay buffer with 15 min incubation at 37° C., 5% CO2 followed by 10 μl of AVP at 6× final concentration in assay buffer. […] The assay buffer consisted of HBSS (+Ca/+Mg) supplemented with 20 mM HEPES, and for the preparation of the AVP agonist only, 0.1% w/v bovine serum albumin. The assay was initiated by the removal of growth media from the cells and replacement with 45 μl of Calcium-6 dye (Molecular Devices) prepared at 1× in assay buffer. Cells are loaded with dye for 60-90 min at 37° C., 5% CO2 before initiation of the FLIPR^TETRA protocol. […] At the end of the incubation period, 10 μl of AVP in assay buffer containing 0.1% BSA was added at the previously determined EC80 concentration.
human Arginine Vasopressin Receptor 1a (AVPR1a), sequence (P37288 whole entry): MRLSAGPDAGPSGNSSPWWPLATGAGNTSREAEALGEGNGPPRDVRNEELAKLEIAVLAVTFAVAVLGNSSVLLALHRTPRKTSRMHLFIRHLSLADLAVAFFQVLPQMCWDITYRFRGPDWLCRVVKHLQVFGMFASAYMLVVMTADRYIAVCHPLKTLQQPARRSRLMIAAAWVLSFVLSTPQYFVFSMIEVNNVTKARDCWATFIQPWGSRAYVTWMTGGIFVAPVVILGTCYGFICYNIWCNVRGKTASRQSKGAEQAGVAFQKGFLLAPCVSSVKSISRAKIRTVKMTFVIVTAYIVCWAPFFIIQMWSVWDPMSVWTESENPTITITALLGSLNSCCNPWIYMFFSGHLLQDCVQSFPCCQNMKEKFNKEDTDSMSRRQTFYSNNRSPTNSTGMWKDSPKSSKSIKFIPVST
Usually IC50 stands for the concentration that gives 50% inhibition. On to `CN1Cc2cc(Cl)ccc2-n2c(nnc2C2CC3(C2)CN(S(=O)(=O)C2CC2)C3)C1` [compound 26], for which the IC50 was in the range of 100 to 500 nM. Turning to `CC(C)C(=O)N1CC2(CC(c3nnc4n3-c3ccc(Cl)cc3CN(C)C4)C2)C1` [compound 30], the IC50 was in the range of 100 to 500 nM. Consider `CN1Cc2cc(Cl)ccc2-n2c(nnc2C2CC3(C2)CN(C(=O)C2(C)CC2)C3)C1` [compound 31], for which the IC50 fell in the range of 100 to 500 nM. As for `CN1Cc2cc(Cl)ccc2-n2c(nnc2C2CC3(C2)CN(S(C)(=O)=O)C3)C1` [compound 34, 8-chloro-5-methyl-1-(2-(methylsulfonyl)-2-azaspiro[3.3]heptan-6-yl)-5,6-dihydro-4H-benzo[f][1,2,4]triazolo[4,3-a][1,4]diazepine], the IC50 was in the range of 500 to 1000 nM. Take `CN1Cc2cc(Cl)ccc2-n2c(nnc2C2CC3(C2)CN(C(=O)C2CCC2)C3)C1` [compound 35]: the IC50 was in the range of 100 to 500 nM.

With `CC(C)N1Cc2cc(Cl)ccc2-n2c(nnc2C2CC3(C2)CN(c2cccnc2)C3)C1` [compound 51], the IC50 lay in the range of 100 to 500 nM. Turning to `COCCN1Cc2cc(Cl)ccc2-n2c(nnc2C2CC3(C2)CN(c2cccnc2)C3)C1` [compound 55], the IC50 lay within 100 to 500 nM. Still for that read-out and setting: the figure for `Fc1ccc(N2CC3(CC(c4nnc5n4-c4ccc(Cl)cc4CNC5)C3)C2)nc1` [compound 60, 8-chloro-1-(2-(5-fluoropyridin-2-yl)-2-azaspiro[3.3]heptan-6-yl)-5,6-dihydro-4H-benzo[f][1,2,4]triazolo[4,3-a][1,4]diazepine] is 100 to 500 nM; for `CC(=O)N1Cc2cc(Cl)ccc2-n2c(nnc2C2CC3(C2)CN(c2cccnn2)C3)C1` [compound 66] it is 100 to 500 nM. Regarding `CN1Cc2cc(Cl)ccc2-n2c(nnc2C2CC3(C2)CN(C(=O)C2CC2(F)F)C3)C1` (stereo not drawn) [compound 124], the IC50 was in the range of 100 to 500 nM.

Turning to `COC(=O)N1Cc2cc(Cl)ccc2-n2c(nnc2C2CC3(C2)CN(c2ccncn2)C3)C1` [compound 186], the IC50 is 100 to 500 nM. With `O=C1OCC2c3nnc(C4CC5(C4)CN(c4ncccn4)C5)n3-c3ccc(Cl)cc3CN12` (stereo not drawn) [compound 198], the IC50 was 100 to 500 nM. In the case of `CN1Cc2cc(Cl)ccc2-n2c(nnc2C2CC3(C2)CN(c2nn(C)c4ncccc24)C3)C1` [compound 231], the IC50 fell in the range of 100 to 500 nM.

Regarding `Cc1cnc(N2CC3(CC(c4nnc5n4-c4ccc(Cl)cc4CN(C4CC4)C5)C3)C2)nc1` [compound 234], the IC50 fell in the range of 100 to 500 nM. Consider `Cc1cnc(N2CC3(CC(c4nnc5n4-c4ccc(Cl)cc4CN(C)C5)C3)C2)nc1` [compound 239], for which the IC50 was in the range of 100 to 500 nM.

The assay is the same for the next values; noted with them: read-out: V1a IC50.
On to `CN1Cc2cc(Cl)ccc2-n2c(nnc2C2CC3(C2)CN(C(=O)C2CCOCC2)C3)C1` [compound 27], for which the IC50 was more than 1000 nM. With `CN1Cc2cc(Cl)ccc2-n2c(nnc2C2CC3(C2)CN(C(=O)OC2CCOCC2)C3)C1` [compound 29], the IC50 was more than 1000 nM.

As for `CN1Cc2cc(Cl)ccc2-n2c(nnc2C2CC3(C2)CN(C(=O)CC2CC2)C3)C1` [compound 32], the IC50 is more than 1000 nM. For the molecule `CN1Cc2cc(Cl)ccc2-n2c(nnc2C2CC3(C2)CN(C(=O)C2CCO2)C3)C1` (stereo not drawn) [compound 33], the IC50 was more than 1000 nM. Take `CN1Cc2cc(Cl)ccc2-n2c(nnc2C2CC3(C2)CN(c2ncccn2)C3)C1` [compound 38]: the IC50 was less than 100 nM. As for `Clc1ccc2c(c1)CN(C1CCC1)Cc1nnc(C3CC4(C3)CN(c3cnccn3)C4)n1-2` [compound 40], the IC50 is less than 100 nM. Take `COCCN1Cc2cc(Cl)ccc2-n2c(nnc2C2CC3(C2)CN(c2cnccn2)C3)C1` [compound 43]: the half-inhibitory concentration (IC50) was less than 100 nM. In the case of `COCCN1Cc2cc(Cl)ccc2-n2c(nnc2C2CC3(C2)CN(c2ccc(F)cn2)C3)C1` [compound 44], the IC50 was less than 100 nM.

For `COCCN1Cc2cc(Cl)ccc2-n2c(nnc2C2CC3(C2)CN(c2ncccc2F)C3)C1` [compound 53], the IC50 was less than 100 nM.

For `CC(C)(C)OC(=O)N1Cc2cc(Cl)ccc2-n2c(nnc2C2CC3(C2)CN(c2ccccn2)C3)C1` [compound 62], the IC50 is less than 100 nM. `O=C(C(F)F)N1Cc2cc(Cl)ccc2-n2c(nnc2C2CC3(C2)CN(c2cnccn2)C3)C1` [compound 82]: the IC50 was less than 100 nM. Same read-out and setting: with `CN1Cc2cc(Cl)ccc2-c2c(C3CC4(C3)CN(c3ccc(F)cn3)C4)noc2C1` [compound 97, 8-chloro-1-(2-(5-fluoropyridin-2-yl)-2-azaspiro[3.3]heptan-6-yl)-5-methyl-5,6-dihydro-4H-benzo[c]isoxazolo[4,5-e]azepine] the figure was less than 100 nM; with `COCC(=O)N1CC2(CC(c3nnc4n3-c3ccc(Cl)cc3CN(C)C4)C2)C1` [compound 126], more than 1000 nM; with `O=C(C1C[C@H]1F)N1Cc2cc(Cl)ccc2-n2c(nnc2C2CC3(C2)CN(c2ccc(F)cn2)C3)C1` (stereo partly drawn) [compound 158], less than 100 nM. With `O=C(C1C[C@@H]1F)N1Cc2cc(Cl)ccc2-n2c(nnc2C2CC3(C2)CN(c2ccc(F)cn2)C3)C1` (stereo partly drawn) [compound 159], the IC50 was less than 100 nM. Turning to `CC1c2nnc(C3CC4(C3)CN(c3ccc(F)cn3)C4)n2-c2ccc(Cl)cc2CN1C(=O)C(C)(C)F` (stereo not drawn) [compound 178], the IC50 is less than 100 nM. Turning to `CC1c2nnc(C3CC4(C3)CN(c3ccccn3)C4)n2-c2ccc(Cl)cc2CN1C(=O)C1(F)CC1` (stereo not drawn) [compound 181], the IC50 was less than 100 nM. For `COC(=O)N1Cc2cc(Cl)ccc2-n2c(C3CC4(C3)CN(c3ccncn3)C4)nnc2C1C` (stereo not drawn) [compound 184, methyl 8-chloro-4-methyl-1-(2-(pyrimidin-4-yl)-2-azaspiro[3.3]heptan-6-yl)-4H-benzo[f][1,2,4]triazolo[4,3-a][1,4]diazepine-5(6H)-carboxylate], the IC50 is 100 to 500 nM. For the molecule `CCOC(=O)N1Cc2cc(Cl)ccc2-n2c(C3CC4(C3)CN(c3nccc(C(F)(F)F)n3)C4)nnc2C1C` (stereo not drawn) [compound 190], the IC50 was less than 100 nM.

Regarding `Cc1ccnc(N2CC3(CC(c4nnc5n4-c4ccc(Cl)cc4CN(C4CC4)C5)C3)C2)c1` [compound 217, 8-chloro-5-cyclopropyl-1-(2-(4-methylpyridin-2-yl)-2-azaspiro[3.3]heptan-6-yl)-5,6-dihydro-4H-benzo[f][1,2,4]triazolo[4,3-a][1,4]diazepine], the IC50 was less than 100 nM. On to `Clc1ccc2c(c1)CN(C1CC1)Cc1nnc(C3CC4(C3)CN(c3cnccn3)C4)n1-2` [compound 219], for which the IC50 is less than 100 nM. `Cc1cncc(N2CC3(CC(c4nnc5n4-c4ccc(Cl)cc4CN(C4CC4)C5)C3)C2)n1` [compound 221]: the IC50 is less than 100 nM. In the case of `Cc1nccnc1N1CC2(CC(c3nnc4n3-c3ccc(Cl)cc3CN(C3CC3)C4)C2)C1` [compound 222], the IC50 is less than 100 nM.

For the molecule `Cc1ccc(N2CC3(CC(c4nnc5n4-c4ccc(Cl)cc4CN(C4CC4)C5)C3)C2)nc1` [compound 227], the IC50 is less than 100 nM. As for `N#Cc1cccc(N2CC3(CC(c4nnc5n4-c4ccc(Cl)cc4CN(C4CC4)C5)C3)C2)n1` [compound 228], the IC50 was less than 100 nM. With `N#Cc1ccnc(N2CC3(CC(c4nnc5n4-c4ccc(Cl)cc4CN(C4CC4)C5)C3)C2)c1` [compound 232], the IC50 was less than 100 nM. With `Clc1ccc2c(c1)CN(C1CC1)Cc1nnc(C3CC4(C3)CN(c3ccncn3)C4)n1-2` [compound 233], the IC50 is less than 100 nM. The same measure, in the same setting: the figure for `Cc1cc(N2CC3(CC(c4nnc5n4-c4ccc(Cl)cc4CN(C4CC4)C5)C3)C2)ncc1F` [compound 235] is less than 100 nM; for `CN1Cc2cc(Cl)ccc2-n2c(nnc2C2CC3(C2)CN(c2ncc(F)cn2)C3)C1` [compound 236, 8-chloro-5-methyl-1-(2-(5-fluoropyrimidin-2-yl)-2-azaspiro[3.3]heptan-6-yl)-5,6-dihydro-4H-benzo[f][1,2,4]triazolo[4,3-a][1,4]diazepine] it is less than 100 nM; for `Cc1cncc(N2CC3(CC(c4nnc5n4-c4ccc(Cl)cc4CN(C)C5)C3)C2)n1` [compound 237] it is less than 100 nM. For `CN1Cc2cc(Cl)ccc2-n2c(nnc2C2CC3(C2)CN(c2ncncc2F)C3)C1` [compound 238], the IC50 was less than 100 nM. `Cc1nc(N2CC3(CC(c4nnc5n4-c4ccc(Cl)cc4CN(C)C5)C3)C2)ncc1F` [compound 240]: the IC50 is less than 100 nM. In the case of `Cc1ccnc(N2CC3(CC(c4nnc5n4-c4ccc(Cl)cc4CN(C)C5)C3)C2)c1` [compound 241, 8-chloro-5-methyl-1-(2-(4-methylpyridin-2-yl)-2-azaspiro[3.3]heptan-6-yl)-5,6-dihydro-4H-benzo[f][1,2,4]triazolo[4,3-a][1,4]diazepine], the IC50 is less than 100 nM.

The values are drawn from patent US11186577B2, “Vasopressin receptor antagonists and products and methods related thereto” (BlackThorn Therapeutics, Inc., priority 2017, dated 2021).
